In patent publication US11142515B2, “Pyrazolyl-ureas as kinase inhibitors” (RESPIVERT LIMITED, priority 2014, dated 2021):

Assays:
PBMCs (mitosis) = experiment: Cell mitosis assay in PHA-treated PBMCs; assay type: cell-based, human
Protocol: Peripheral blood mononucleocytes (PBMCs) from healthy subjects were separated from whole blood (Quintiles, London, UK) using a density gradient (Histopaquee-1077, Sigma-Aldrich, Poole, UK). The PBMCs (3 million cells per sample) were subsequently treated with 2% PHA (Sigma-Aldrich, Poole, UK) for 48 h, followed by a 20 h exposure to varying concentrations of test compounds. At 2 h before collection, PBMCs were treated with demecolcine (0.1 μg/mL; Life Technologies, Paisley, UK,) to arrest cells in metaphase.

[1] = tested on: sputum macrophages from COPD patients; experiment: Cytokine production in LPS-treated sputum macrophages from COPD patients; assay type: cell-based, human
Protocol: Patients with COPD inhaled a nebulised solution of 3% (w/v) hypertonic saline using an ultrasonic nebuliser (Devilbiss, Carthage, Mo.) with tidal breathing for 5 min. This procedure was repeated a maximum of three times until enough sputum was obtained. The sputum samples were homogenized and mixed vigorously using a vortex mixer in 0.02% v/v dithiothreitol (DTT) solution. The samples were re-suspended in PBS (40 mL) followed by centrifugation at 1500 rpm at 4° C. for 10 min to obtain sputum cell pellets. The pellets were washed with PBS (40 mL). The sputum cells were then re-suspended in 4 mL macrophage serum-free medium (macrophage-SFM, Life technologies, containing 20 U/mL penicillin, 0.02 mg/mL streptomycin and 5 μg/mL amphotericin B) and seeded on high bound 96-well plate, followed by incubation for 1 h at 37° C. and at 5% CO2 to allow the macrophages to attach to the bottom of the plate. The cells on the plate were washed with fresh macrophage-SFM (200 μL/well) to remove neutrophils and other contaminated cells. The adherent cells (mainly sputum macrophages) on the plate were used for further analysis. Sputum inductions were conducted in Quintiles Drug Research Unit at Guys Hospital and ethics approval and written informed consent was obtained by Quintiles.
Where appropriate, 1 μL of a solution containing either the test compound or reference article at the stated concentrations (either 0.1 μg/mL, 0.01 μg/mL, or 0.001 μg/mL) or alternatively 1 μL of DMSO as the vehicle control was added to each well (200 μL in media) and the cells were incubated for 2 h. The cells were stimulated with LPS solution (50 μL, final concentration: 1 μg/mL) and incubated for 18 h at 37° C. and 5% CO2. The supernatant was then collected and kept at −80° C. Suitable luminex kits were used to measure the selected analytes. After thawing the supernatant, the magnetic antibody beads were multiplexed and incubated in a 96-well plate with standard, background solution or the appropriate volume of sample overnight with shaking at 4° C. After washing twice with 200 μL of wash buffer provided by the kit per well using a magnetic plate washer, the beads were incubated for 1 h at RT with the biotin conjugated antibody solution provided by the kit with shaking. Streptavidin solution was added for 30 min with shaking at RT. After washing with 200 μL wash buffer per well, the beads were resuspended in sheath fluid (150 μL) and analyzed immediately. The level of each analyte in the supernatant was calculated using Xcel Fit software with a 4 or 5-parameter equation using each standard curve. The inhibitions of each cytokine production were calculated at each concentration by comparison with vehicle control.

[2] = tested on: alveolar macrophages and neutrophils in BALF; experiment: Cigarette smoke model: macrophages and neutrophils in BALF; assay type: in vivo, A/J mice; conditions: mice; for Cell numbers in BALF, Macrophage / Cell numbers in BALF, Macrophage, % inhibition / Cell numbers in BALF, Neutrophil / Cell numbers in BALF, Neutrophil, % inhibition: tobacco smoke
Protocol: A/J mice (males, 5 weeks old) were exposed to cigarette smoke (4% cigarette smoke, diluted with air) for 30 min/day for 11 days using a Tobacco Smoke Inhalation Experiment System for small animals (Model SIS-CS; Sibata Scientific Technology, Tokyo, Japan). […] At 12 h after the last […], each of the animals was anesthetized, the trachea cannulated and bronchoalveolar lavage fluid (BALF) was collected. The numbers of alveolar macrophages and neutrophils were determined by FACS analysis (EPICS® ALTRA II, Beckman Coulter, Inc., Fullerton, Calif., USA) using anti-mouse MOMA2 antibody (macrophage) or anti-mouse 7/4 antibody (neutrophil). BALF was centrifuged and the supernatant was collected. The level of keratinocyte chemoattractant (KC; CXCL1) in BALF was quantitated using a Quantikine® mouse KC ELISA kit (R&D systems, Inc., Minneapolis, Minn., USA).

CXCL1 (KC) in BALF = experiment: Cigarette smoke model: CXCL1 (KC) in BALF; assay type: in vivo, A/J mice; conditions: mice; for CXCL1 in BALF / CXCL1 in BALF, % inhibition: tobacco smoke
Protocol: A/J mice (males, 5 weeks old) were exposed to cigarette smoke (4% cigarette smoke, diluted with air) for 30 min/day for 11 days using a Tobacco Smoke Inhalation Experiment System for small animals (Model SIS-CS; Sibata Scientific Technology, Tokyo, Japan). Test substances were administered intra-nasally (35 μL of solution in 10% DMSO/PBS) once daily for 3 days after the final cigarette smoke exposure. At 12 h after the last […], each of the animals was anesthetized, the trachea cannulated and bronchoalveolar lavage fluid (BALF) was collected. The numbers of alveolar macrophages and neutrophils were determined by FACS analysis (EPICS® ALTRA II, Beckman Coulter, Inc., Fullerton, Calif., USA) using anti-mouse MOMA2 antibody (macrophage) or anti-mouse 7/4 antibody (neutrophil). BALF was centrifuged and the supernatant was collected. The level of keratinocyte chemoattractant (KC; CXCL1) in BALF was quantitated using a Quantikine® mouse KC ELISA kit (R&D systems, Inc., Minneapolis, Minn., USA).

Cc1ccc(-n2nc(C(C)(C)C)cc2NC(=O)Nc2ccc(OCc3ccnc(Nc4cnccn4)c3)c3ccccc23)cc1 [Example 1, 1-(3-(tert-Butyl)-1-(p-tolyl)-1H-pyrazol-5-yl)-3-(4-((2-(pyrazin-2-ylamino)pyridin-4-yl)methoxy)naphthalen-1-yl)urea]
impact on cell division (mitosis) compared with Reference Compound (PBMCs (mitosis)): markedly less activity | inhibition at 5 µg/mL (PBMCs (mitosis); Homo sapiens, PBMC, 5 μg/mL, PBMC, Table 5A, read-out: Mitosis Assay % Inhibition at 5 μg/mL in PBMC Cells): 29.9% | inhibition of pro-inflammatory cytokine production in sputum macrophage compared with fluticasone propionate [1]: higher efficacy | IC50 ([1]; Homo sapiens, Macrophage, IL-6, sputum macrophages from COPD patients): 28 nM | inhibition at 0.1 µg/mL ([1]; Homo sapiens, Macrophage, read-out: E-max (maximum inhibition), IL-6 production in LPS-treated sputum macrophages): 60% | Cell numbers in BALF, Macrophage ([2]; 0.07 μg/mouse): 172700 mL⁻¹ | Cell numbers in BALF, Macrophage, % inhibition ([2]; 0.07 μg/mouse): 10.2% | Cell numbers in BALF, Neutrophil ([2]; 0.07 μg/mouse): 94200 mL⁻¹ | Cell numbers in BALF, Neutrophil, % inhibition ([2]; 0.07 μg/mouse): 13.7% | Cell numbers in BALF, Macrophage ([2]; 0.7 μg/mouse): 149200 mL⁻¹ | Cell numbers in BALF, Macrophage, % inhibition ([2]; 0.7 μg/mouse): 26.5% | Cell numbers in BALF, Neutrophil ([2]; 0.7 μg/mouse): 76600 mL⁻¹ | Cell numbers in BALF, Neutrophil, % inhibition ([2]; 0.7 μg/mouse): 33.7% | Cell numbers in BALF, Macrophage ([2]; 7 μg/mouse): 113400 mL⁻¹ | Cell numbers in BALF, Macrophage, % inhibition ([2]; 7 μg/mouse): 51.1% | Cell numbers in BALF, Neutrophil ([2]; 7 μg/mouse): 60400 mL⁻¹ | Cell numbers in BALF, Neutrophil, % inhibition ([2]; 7 μg/mouse): 52.0% | macrophage and neutrophil accumulation in BALF induced by cigarette smoke (in words) [2]: dose-dependent inhibition | CXCL1 in BALF (CXCL1 (KC) in BALF; 0.07 μg/mouse): 14.47 pg/mL | CXCL1 in BALF, % inhibition (CXCL1 (KC) in BALF; 0.07 μg/mouse): 14.6% | CXCL1 in BALF (CXCL1 (KC) in BALF; 0.7 μg/mouse): 12.49 pg/mL | CXCL1 in BALF, % inhibition (CXCL1 (KC) in BALF; 0.7 μg/mouse): 34.9% | CXCL1 in BALF (CXCL1 (KC) in BALF; 7 μg/mouse): 9.03 pg/mL | CXCL1 in BALF, % inhibition (CXCL1 (KC) in BALF; 7 μg/mouse): 70.3% | tobacco smoke induced CXCL1 (KC) production in BALF (in words) (CXCL1 (KC) in BALF): inhibited
